The test system of data set [1] is Salmonella typhimurium TA98 and TA100. The experiment in a line: Bacterial reverse mutation test (Ames). As to conditions: TA98 and TA100, with or without S9.
Data set [2] relates to MK-801-induced schizophrenic mouse model. Description: MK-801-induced schizophrenic mouse model, open-field movement. The settings on record: for ED50: Mus musculus, po, read-out: ED50, total distance of the open-field movement; for Total distance of the spontaneous movement (cm): 60 min, mean ± SD.
Data set [3] deals with Apo.-induced schizophrenic mouse model. Description: Apomorphine-induced schizophrenic mouse model, stereotyped behaviors. It is filed as in vivo. As to conditions: for ED50: Mus musculus, single oral administration, Apo.-induced model, read-out: ED50, inhibition of the total stereotyped behaviors; for Score of stereotyped behaviors: total score in 60 min, mean ± SD. How it is done:
The drugs are administered by gastric gavage. The model control group is given the same volume of solvent by gastric gavage.
Total score of the stereotyped behaviors of the mice such as tail erection and wall-climbing in the 60 minutes is calculated.
The clinical response symptoms of the animals shall be recorded during the administration and test procedures.

A short description of data set [4]: in vivo. The settings on record: mouse. Here is the method: Observation of general symptoms: the animals are observed at about 0.5, 1, 2, 4, and 6 hours respectively, after the first administration on the first day, and observed twice a day, one in the morning and one in the afternoon, on the second to the sixth day. Observed objects include but are not limited to general condition, behavior activity, gait and posture, eye, mouth, nose, gastrointestinal tract, skin and hair, and genitourinary tract. • (2) Statistical Analysis
Body weight is expressed in mean±SD. Comparison among groups is carried out with Levene's test and one-way ANOVA, followed by Dunnet t test if there exists a difference.
(1) The acute toxicity of the representative compounds of □, □, □ classes is investigated with the method of Example 81.

In data set [5] the target is D2 receptor (Homo sapiens (Human), UniProt P14416). Description: Dopamine D2 receptor binding test. The settings on record: [3H]Spiperone, D2 receptor expressed in HEK293 cells; read-out: Affinity of the compound to D2 receptor, Ki value. An excerpt:
This experiment utilizes the plasmid vector containing the gene of D2 receptor protein for transfecting HEK293 cells by calcium phosphate transfection method.
(§1) Beckman LS-6500 multifunction liquid scintillation counter.

Data set [6] has as its target human recombinant D3 receptor (Homo sapiens (Human), UniProt P35462). The experiment in a line: Dopamine D3 receptor binding test. As to conditions: read-out: Affinity of the compound to D3 receptor, Ki value. How it is done:
With [^3H]methyl-spiperone (0.3 nM) as the ligand and (+)-butaclamol (10 LM) for determining non-specific binding, binding tests are carried out on human recombinant D3 receptor (expressed in CHO cells).

Data set [7] concerns the target 5-HT1A receptor (Homo sapiens (Human), UniProt P08908). The experiment in a line: 5-HT1A receptor binding test. As to conditions: read-out: Affinity of the compound to 5-HT1A receptor, Ki value; [3H]8-OH-DPAT, HEK-293 cells expressing 5-HT1A receptors. Here is the method: Cells: HEK-293 cells stably expressing 5-HT1A receptors as obtained by gene recombination are cultured for 3-5 days in cell culture medium DMEM supplemented with 10% serum.
Competitive inhibition ratio of each compound at the concentration of 10 μmol/L to inhibit the binding of [^3H]8-OH-DPAT to 5-HT1A receptor is determined for primary screening.
The components are mixed to homogeneity, and then the above tubes are transferred to water bath at 30° C. (1 h), removed into ice bath immediately, and suction filtered on Harvest (with ice cold Tris eluate for 5 times).

Data set [8] deals with 5-HT2A receptor (Homo sapiens (Human), UniProt P28223). Description: 5-HT2A receptor binding test. As to conditions: read-out: Affinity of the compound to 5-HT2A receptor, Ki value.
Chain of 5-HT2A receptor (P28223 whole entry): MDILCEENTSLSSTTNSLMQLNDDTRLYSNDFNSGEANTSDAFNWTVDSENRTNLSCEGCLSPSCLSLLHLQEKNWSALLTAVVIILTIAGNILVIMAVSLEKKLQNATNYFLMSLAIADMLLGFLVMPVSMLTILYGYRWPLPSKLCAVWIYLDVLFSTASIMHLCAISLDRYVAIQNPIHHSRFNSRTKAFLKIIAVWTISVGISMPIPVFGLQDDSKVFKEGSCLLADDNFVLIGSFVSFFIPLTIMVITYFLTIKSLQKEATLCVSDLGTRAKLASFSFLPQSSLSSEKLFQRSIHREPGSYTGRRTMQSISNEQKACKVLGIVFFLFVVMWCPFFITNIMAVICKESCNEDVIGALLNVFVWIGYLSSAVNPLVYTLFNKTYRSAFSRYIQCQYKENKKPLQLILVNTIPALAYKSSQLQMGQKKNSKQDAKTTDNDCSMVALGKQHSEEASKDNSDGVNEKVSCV
Excerpt: as §1

Where [9] appears, read: single oral administration, ICR mice, read-out: LD50.
The mark [10] stands for this setting: [3H]-Ketanserin, 5-HT2A receptor expressed in HEK293 cells.
The mark [11] stands for this setting: [3H]methyl-spiperone 0.3 nM, human recombinant D3 receptor in CHO cells.

SMILES strings stand for the structures. Where two headings read alike, the source gives them in different places. Bounds are passed on as bounds.

Chain of D2 receptor (P14416 whole entry): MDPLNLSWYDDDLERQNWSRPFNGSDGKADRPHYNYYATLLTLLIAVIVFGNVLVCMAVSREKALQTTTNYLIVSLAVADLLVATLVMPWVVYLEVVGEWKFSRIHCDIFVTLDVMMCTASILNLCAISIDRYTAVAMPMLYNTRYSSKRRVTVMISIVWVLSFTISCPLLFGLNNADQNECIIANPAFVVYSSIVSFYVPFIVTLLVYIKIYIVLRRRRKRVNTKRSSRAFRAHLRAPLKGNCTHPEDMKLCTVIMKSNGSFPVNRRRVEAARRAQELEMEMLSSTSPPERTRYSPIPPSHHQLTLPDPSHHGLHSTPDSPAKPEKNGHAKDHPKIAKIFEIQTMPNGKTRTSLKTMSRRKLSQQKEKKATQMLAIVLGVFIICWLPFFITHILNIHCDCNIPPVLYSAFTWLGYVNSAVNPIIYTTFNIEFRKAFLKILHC
Chain of 5-HT1A receptor (P08908 whole entry): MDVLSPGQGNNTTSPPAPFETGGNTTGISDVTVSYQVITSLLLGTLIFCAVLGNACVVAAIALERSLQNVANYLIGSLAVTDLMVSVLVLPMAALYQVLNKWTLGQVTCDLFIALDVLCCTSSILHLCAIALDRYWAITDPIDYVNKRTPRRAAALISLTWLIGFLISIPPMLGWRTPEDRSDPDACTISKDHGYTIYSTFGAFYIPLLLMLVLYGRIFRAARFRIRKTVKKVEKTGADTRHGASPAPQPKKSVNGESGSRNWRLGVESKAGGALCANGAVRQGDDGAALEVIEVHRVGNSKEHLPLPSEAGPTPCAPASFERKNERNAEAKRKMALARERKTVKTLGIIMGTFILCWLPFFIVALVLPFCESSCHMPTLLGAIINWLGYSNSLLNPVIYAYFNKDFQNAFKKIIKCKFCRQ
Chain of human recombinant D3 receptor (P35462 whole entry): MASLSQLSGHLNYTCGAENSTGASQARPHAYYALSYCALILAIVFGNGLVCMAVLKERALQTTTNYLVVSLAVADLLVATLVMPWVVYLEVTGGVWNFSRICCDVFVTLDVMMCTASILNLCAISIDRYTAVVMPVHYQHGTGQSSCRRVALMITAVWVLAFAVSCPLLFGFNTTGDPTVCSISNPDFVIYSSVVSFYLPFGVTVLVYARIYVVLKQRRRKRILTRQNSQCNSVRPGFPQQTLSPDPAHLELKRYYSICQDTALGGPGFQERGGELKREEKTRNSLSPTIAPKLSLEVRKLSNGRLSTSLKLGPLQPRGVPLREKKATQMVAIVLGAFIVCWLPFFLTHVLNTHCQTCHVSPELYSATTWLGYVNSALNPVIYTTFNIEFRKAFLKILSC

A word on the ED50: it is the dose at which the effect has come halfway, by size or by number of responders. What is called LD50 is the dose at which mortality reaches 50%. Turning to `CC(C)COC(=O)N[C@H]1CC[C@H](CCN2CCN(c3nsc4ccccc34)CC2)CC1` [III-3, trans-N-(4-(2-(4-(benzo[d]isothiazol-3-yl)piperazin-1-yl)ethyl)cyclohexyl)isobutylcarbamate], in data set [1], the “Ames test result (colonies with reverse mutations)” value (“Ames test result” for short) is reported as “negative”. Besides, the ED50 stood at 0.061 mg/kg in data set [2] and 0.76 mg/kg in data set [3]. In data set [4] (setting [9]), the LD50 at 6 days is > 2000 mg/kg.
For `COC(=O)N[C@H]1CC[C@@H](CCN2CCN(c3nsc4ccccc34)CC2)CC1` [III-14, cis-(4-(2-(4-(benzo[d]isothiazol-3-yl)piperazin-1-yl)ethyl)cyclohexyl)methylcarbamate], in that order: “negative”, 0.058 mg/kg, 0.45 mg/kg and 1080 mg/kg.
Broadly, the Ki is the equilibrium dissociation constant of an inhibitor or competing ligand from its target. In the case of `O=S(=O)(N[C@H]1CC[C@H](CCN2CCN(c3nsc4ccccc34)CC2)CC1)c1cc2ccccc2o1` [II-5, trans-N-(4-(2-(4-(benzo[d]isothiazol-3-yl)piperazin-1-yl)ethyl)cyclohexyl)benzofuryl-2-sulfamide], the “Ames test result” value in data set [1] is on record as “negative”. Further, the Ki in data set [5] was determined as 0.58 nM; in data set [6], 0.085 nM; in data set [7] it was 10.6 nM. Moreover, the values for the ED50 in data set [2] and in data set [3] were 0.088 mg/kg and 0.64 mg/kg, respectively. This compound showed an LD50 at 6 days in data set [4] (ICR, po) of 1100 mg/kg.
`O=C(Nc1ccccc1)N[C@H]1CC[C@H](CCN2CCN(c3nsc4ccccc34)CC2)CC1` [IV-1, trans-1-(4-(2-(4-(benzo[d]isothiazol-3-yl)piperazin-1-yl)ethyl)cyclohexyl)-3-phenylurea]: the Ki in data set [8] (setting [10]) came to 0.83 nM; in data set [5], 1.06 nM; in data set [6] (setting [11]) it was 1.42 nM; in data set [7], 3.65 nM.
For the compound `O=C(N[C@H]1CC[C@@H](CCN2CCN(c3nsc4ccccc34)CC2)CC1)c1cc2ccccc2[nH]1` [Compound I-22, cis-N-(4-(2-(4-(benzo[d]isothiazol-3-yl)piperazin-1-yl)ethyl)cyclohexyl)-1H-indolyl-2-carboxamide], the “Ames test result” value in data set [1] is “negative”. Besides, the values for the inhibitory constant (Ki) in data set [5] and in data set [6] were 1.9 nM and 0.071 nM, respectively. The values for the 50% effective dose (ED50) in data set [2] and in data set [3] were 0.062 mg/kg and 0.59 mg/kg, respectively. In addition, the LD50 at 6 days in data set [4] (ICR, po) was found to be 1530 mg/kg.
With `O=C(N[C@H]1CC[C@H](CCN2CCN(c3nsc4ccccc34)CC2)CC1)OCc1ccccc1` [III-11], the “Ames test result” value in data set [1] was “negative”. The ED50 stood at 0.092 mg/kg in data set [2] and 0.1 mg/kg in data set [3]. Moreover, the median lethal dose (LD50) at 6 days in data set [4] (setting [9]) is 1240 mg/kg.
For the compound `Cc1ccsc1C(=O)N[C@H]1CC[C@H](CCN2CCN(c3nsc4ccccc34)CC2)CC1` [Compound I-11, trans-N-(4-(2-(4-(benzo[d]isothiazol-3-yl)piperazin-1-yl)ethyl)cyclohexyl)-3-methylthienyl-2-carboxamide], the inhibitory constant (Ki) stood at 2.01 nM in data set [8] (setting [10]), 4.81 nM in data set [5], 0.37 nM in data set [6] (setting [11]) and 2.84 nM in data set [7].
Regarding `CN(C(=O)N[C@H]1CC[C@H](CCN2CCN(c3nsc4ccccc34)CC2)CC1)c1ccccc1` [IV-6, trans-3-(4-(2-(4-(benzo[d]isothiazol-3-yl)piperazin-1-yl)ethyl)cyclohexyl)-1-methyl-1-phenylurea], the “Ames test result” value in data set [1] is on record as “negative”. Moreover, the results for the ED50 in data set [2] and in data set [3] were 0.084 mg/kg and 0.48 mg/kg, respectively. Moreover, the Ki in data set [6] was found to be 0.13 nM; in data set [7], 4.6 nM. In data set [4] (ICR, po), this compound came in with an LD50 at 6 days of 1390 mg/kg.
For the compound `O=C(N[C@H]1CC[C@H](CCN2CCN(c3nsc4ccccc34)CC2)CC1)c1cc2ccccc2s1` [Compound I-6, trans-N-(4-(2-(4-(benzo[d]isothiazol-3-yl)piperazin-1-yl)ethyl)cyclohexyl)benzo[b]thienyl-2-carboxamide], the results for the Ki in data set [8], in data set [5] and in data set [6] were 0.72 nM, 1.81 nM and 0.035 nM, respectively. In addition, the “Ames test result” value in data set [1] is on record as “negative”. For the same compound, the “effect on the open-field movement (in words)” value in data set [2] (MK-801 mouse model, oral) was “greater improvement ratio than RGH-188”. For the same compound, the figures for the ED50 in data set [2] and in data set [3] were 0.038 mg/kg and 0.23 mg/kg, respectively. For the same compound, the “Total distance of the spontaneous movement (cm)” value in data set [2] (single oral administration 0.02 mg/kg) came to 19482.27 ± 11047.75 cm; in data set [2] (single oral administration 0.03 mg/kg) it was 17280.33 ± 9364.31 cm; in data set [2] (single oral administration 0.05 mg/kg) it was 11145.52 ± 6988.56 cm; in data set [2] (single oral administration 0.09 mg/kg), 7796.38 ± 4382.94 cm. Moreover, the “effect on stereotyped behaviors (in words)” value in data set [3] (apomorphine mouse model, oral) is recorded as “greater improvement ratio than RGH-188”. Moreover, the “Score of stereotyped behaviors” value amounted to 23.02 ± 8.32 in data set [3] (single oral administration 0.12 mg/kg), 4.01 ± 3.65 in data set [3] (single oral administration 0.40 mg/kg) and 0.71 ± 0.94 in data set [3] (single oral administration 0.90 mg/kg). Further, in data set [4] (ICR, po), the LD50 at 6 days was > 2000 mg/kg.
As for `CCc1c(C(=O)N[C@H]2CC[C@H](CCN3CCN(c4nsc5ccccc45)CC3)CC2)sc2ccccc12` [Compound I-13, trans-N-(4-(2-(4-(benzo[d]isothiazol-3-yl)piperazin-1-yl)ethyl)cyclohexyl)-3-ethylbenzo[b]thienyl-2-carboxamide], the Ki in data set [8] (setting [10]) was 4.9 nM; in data set [5] it was 1.78 nM; in data set [6] (setting [11]), 1.42 nM; in data set [7] it was 4.07 nM.
As for `O=C(N[C@H]1CC[C@H](CCN2CCN(c3nsc4ccccc34)CC2)CC1)c1cc2ccccc2[nH]1` [Compound I-4, trans-N-(4-(2-(4-(benzo[d]isothiazol-3-yl)piperazin-1-yl)ethyl)cyclohexyl)-1H-indolyl-2-carboxamide], the “Ames test result” value in data set [1] was “negative”. Also, the Ki is 0.43 nM in data set [5] and 0.029 nM in data set [6]. Besides, the ED50 was found to be 0.073 mg/kg in data set [2] and 0.37 mg/kg in data set [3]. In data set [4] (ICR, po), the LD50 at 6 days is > 2000 mg/kg.
Turning to `O=S(=O)(N[C@H]1CC[C@H](CCN2CCN(c3nsc4ccccc34)CC2)CC1)c1cccs1` [II-1, trans-N-(4-(2-(4-(benzo[d]isothiazol-3-yl)piperazin-1-yl)ethyl)cyclohexyl)thienyl-2-sulfamide], the “Ames test result” value in data set [1] was “negative”. Besides, the Ki in data set [5] is 0.43 nM; in data set [6] (setting [11]), 0.043 nM; in data set [7] it was 3.3 nM. Also, the results for the ED50 in data set [2] and in data set [3] were 0.074 mg/kg and 0.2 mg/kg, respectively. For the same compound, the LD50 at 6 days in data set [4] (ICR, po) is > 2000 mg/kg.
As to `O=C(N[C@H]1CC[C@H](CCN2CCN(c3nsc4ccccc34)CC2)CC1)c1cc2cc([N+](=O)[O-])ccc2[nH]1` [Compound I-15, trans-N-(4-(2-(4-(benzo[d]isothiazol-3-yl)piperazin-1-yl)ethyl)cyclohexyl)-5-nitro-1H-indolyl-2-carboxamide], the Ki was 2.65 nM in data set [8] (setting [10]), 21.3 nM in data set [5], 4.03 nM in data set [6] (setting [11]) and 8.45 nM in data set [7].
The corresponding values for `O=S(=O)(N[C@H]1CC[C@H](CCN2CCN(c3nsc4ccccc34)CC2)CC1)c1ccc(Cl)o1` [II-8, trans-N-(4-(2-(4-(benzo[d]isothiazol-3-yl)piperazin-1-yl)ethyl)cyclohexyl)-5-chlorofuryl-2-sulfamide] are 1.96 nM, 10.8 nM, 4.51 nM and 3.96 nM.

The record behind these values is patent US9550741B2, “Benzoisothiazole compounds and methods of treating schizophrenia” (SHANGHAI INSTITUTE OF PHARMACEUTICAL INDUSTRY, priority 2013, dated 2017).
